# Data published in PubChem BioAssay (NCI).
#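 Following 48 hours of exposure in 96-well plates, responses at five concentrations were used to interpolate endpoints linearly. TGI: total growth inhibition.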
# What was measured:
# Assay in all cases: DTP human tumour cell line panel, 48 h
# [1] = system: MOLT-4 leukemia
# [2] = system: SF-295 CNS
# [3] = system: SK-MEL-5 melanoma
# [4] = system: RPMI-8226 leukemia
# [5] = system: LOX IMVI melanoma
# [6] = system: UACC-257 melanoma
# [7] = system: DMS 114 small cell lung
# [8] = system: TK-10 renal
# [9] = system: HCC-2998 colon
# [10] = system: SN12C renal
# [11] = system: RXF-631 renal
# [12] = system: IGROV1 ovarian
# [13] = system: M19-MEL melanoma
# [14] = system: MALME-3M melanoma
# [15] = system: ACHN renal
# [16] = system: U251 CNS
# [17] = system: SR leukemia
# [18] = system: UACC-62 melanoma
# [19] = system: HL-60(TB) leukemia
# [20] = system: RXF 393 renal
# [21] = system: OVCAR-5 ovarian
# [22] = system: CCRF-CEM leukemia
# [23] = system: SK-OV-3 ovarian
# [24] = system: SNB-19 CNS
# [25] = system: HOP-18 NSCLC
# [26] = system: SF-268 CNS
# [27] = system: K-562 leukemia
# [28] = system: NCI-H522 lung
# [29] = system: SNB-78 CNS
# [30] = system: SNB-75 CNS
# [31] = system: HCT-116 colon
# [32] = system: 786-0 renal
# [33] = system: NCI-H23 lung
# [34] = system: A498 renal
# [35] = system: HCT-15 colon
# [36] = system: SK-MEL-28 melanoma
# [37] = system: HOP-92 NSCLC
# [38] = system: OVCAR-8 ovarian
# [39] = system: HT29 colon
# [40] = system: EKVX NSCLC
# [41] = system: SW-620 colon
# [42] = system: DLD-1 colon
# [43] = system: M14 melanoma
# [44] = system: COLO 205 colon
# [45] = system: KM20L2 colon
# [46] = system: XF 498 CNS
# [47] = system: NCI-H226 lung
# [48] = system: DMS 273 small cell lung
# [49] = system: OVCAR-4 ovarian
# [50] = system: CAKI-1 renal
# [51] = system: A549 NSCLC
# [52] = system: OVCAR-3 ovarian
# [53] = system: KM12 colon
# [54] = system: SF-539 CNS
# [55] = system: UO-31 renal
# [56] = system: HOP-62 NSCLC
# [57] = system: SK-MEL-2 melanoma
# [58] = system: NCI-H460 lung
smiles,measurement,setting,value
CN1C=C(C(N)=O)C2CC(O)[C@@](NC(=O)CS(N)(=O)=O)(C(=O)O)C2C1 (stereo partly drawn),TGI,[1],31.6 µM
same,TGI,[2],6.97 µM
same,TGI,[3],15.7 µM
same,TGI,[4],58.9 µM
same,TGI,[5],5.58 µM
same,TGI,[6],27 µM
same,TGI,[7],7.38 µM
same,TGI,[8],28.5 µM
same,TGI,[9],34 µM
same,TGI,[10],> 75.1 µM
same,TGI,[11],9.7 µM
same,TGI,[12],7.83 µM
same,TGI,[13],15.8 µM
same,TGI,[14],20.3 µM
same,TGI,[15],97.3 µM
same,TGI,[16],11 µM
same,TGI,[17],15.7 µM
same,TGI,[18],7.02 µM
same,TGI,[19],> 100 µM
same,TGI,[20],4.16 µM
same,TGI,[21],6.8 µM
same,TGI,[22],> 100 µM
same,TGI,[23],6.75 µM
same,TGI,[24],19.3 µM
same,TGI,[25],> 100 µM
same,TGI,[26],10.3 µM
same,TGI,[27],> 100 µM
same,TGI,[28],23.9 µM
same,TGI,[29],8.68 µM
same,TGI,[30],7.6 µM
same,TGI,[31],18.7 µM
same,TGI,[32],16.4 µM
same,TGI,[33],3.48 µM
same,TGI,[34],4.96 µM
same,TGI,[35],66.3 µM
same,TGI,[36],7.32 µM
same,TGI,[37],5.05 µM
same,TGI,[38],18.2 µM
same,TGI,[39],10.6 µM
same,TGI,[40],> 42.6 µM
same,TGI,[41],> 91.5 µM
same,TGI,[42],52.7 µM
same,TGI,[43],2.8 µM
same,TGI,[44],29.2 µM
same,TGI,[45],> 40.9 µM
same,TGI,[46],3.21 µM
same,TGI,[47],8.52 µM
same,TGI,[48],9.75 µM
same,TGI,[49],4.15 µM
same,TGI,[50],> 100 µM
same,TGI,[51],> 36.2 µM
same,TGI,[52],42.6 µM
same,TGI,[53],49.8 µM
same,TGI,[54],4.41 µM
same,TGI,[55],14.1 µM
same,TGI,[56],4.27 µM
same,TGI,[57],8.22 µM
same,TGI,[58],12.6 µM
